This note sets out measurements from patent publication US12077503B2, “Substituted cyclic amides and their use as herbicides” (FMC CORPORATION, priority 2015, dated 2024).

Holding throughout (test): Test G Post-Emergence Protocol
Common to all, as to assay type: in vivo

For test [1], the system named is barnyardgrass (Echinochloa crus-galli). Conditions: Echinochloa crus-galli, post-emergence, 312 h; for pest or weed control at 15.625 g/ha: 15.625 g ai/ha, evaluated after 13 days (100=total damage to plant; 0=no damage to plant), read-out: Barnyardgrass damage rating; for pest or weed control at 62.5 g/ha: 62.5 g ai/ha, read-out: Barnyardgrass damage rating (100=total damage to plant; 0=no damage to plant); for pest or weed control at 62.5 g/ha / pest or weed control at 250 g/ha: evaluated after 13 days; for pest or weed control at 250 g/ha: 250 g ai/ha, read-out: damage to plant, Barnyardgrass (100=total damage to plant; 0=no damage to plant). The essentials: (§1)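 Pot-grown seedlings, 8 days old, raised in a glasshouse at 24/16 °C day/night with 14 h light and 65% humidity, were sprayed post-emergence with test compound in acetone/water (50:50) plus 0.5% Tween 20 at 15.625, 62.5 or 250 g/ha. Damage was scored visually 13 days later on a 0–100 scale (100 = total damage).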

Test [2] deals with redroot pigweed (Amaranthus retroflexus). Conditions: Amaranthus retroflexus, post-emergence, 312 h; for pest or weed control at 15.625 g/ha: 15.625 g ai/ha, evaluated after 13 days (100=total damage to plant; 0=no damage to plant), read-out: Pigweed, Redroot damage rating; for pest or weed control at 62.5 g/ha: 62.5 g ai/ha, read-out: Pigweed, Redroot damage rating (100=total damage to plant; 0=no damage to plant); for pest or weed control at 62.5 g/ha / pest or weed control at 250 g/ha: evaluated after 13 days; for pest or weed control at 250 g/ha: 250 g ai/ha, read-out: damage to plant, Pigweed, Redroot (100=total damage to plant; 0=no damage to plant). An outline of the steps: as §1

Test [3] concerns giant foxtail (Setaria faberi). The conditions noted are these: Setaria faberi, post-emergence, 312 h; for pest or weed control at 15.625 g/ha: 15.625 g ai/ha, evaluated after 13 days (100=total damage to plant; 0=no damage to plant), read-out: Foxtail, Giant damage rating; for pest or weed control at 62.5 g/ha: 62.5 g ai/ha, read-out: Foxtail, Giant damage rating (100=total damage to plant; 0=no damage to plant); for pest or weed control at 62.5 g/ha / pest or weed control at 250 g/ha: evaluated after 13 days; for pest or weed control at 250 g/ha: 250 g ai/ha, read-out: damage to plant, Foxtail, Giant (100=total damage to plant; 0=no damage to plant). The essentials: as §1

The subject of test [4] is ivy-leaved morning glory (Ipomoea hederacea). The conditions noted are these: Ipomoea, post-emergence, 312 h; for pest or weed control at 15.625 g/ha: 15.625 g ai/ha, evaluated after 13 days (100=total damage to plant; 0=no damage to plant), read-out: Morningglory, Ivy-leaved damage rating; for pest or weed control at 62.5 g/ha: 62.5 g ai/ha, read-out: Morningglory, Ivy-leaved damage rating (100=total damage to plant; 0=no damage to plant); for pest or weed control at 62.5 g/ha / pest or weed control at 250 g/ha: evaluated after 13 days; for pest or weed control at 250 g/ha: 250 g ai/ha, read-out: damage to plant, Morningglory, Ivy-leaved (100=total damage to plant; 0=no damage to plant). An outline of the steps:
as §1

Test [5] relates to velvetleaf (Abutilon theophrasti). The conditions noted are these: Abutilon theophrasti, post-emergence, 312 h; for pest or weed control at 15.625 g/ha: 15.625 g ai/ha, evaluated after 13 days (100=total damage to plant; 0=no damage to plant), read-out: Velvetleaf damage rating; for pest or weed control at 62.5 g/ha: 62.5 g ai/ha, read-out: Velvetleaf damage rating (100=total damage to plant; 0=no damage to plant); for pest or weed control at 62.5 g/ha / pest or weed control at 250 g/ha: evaluated after 13 days; for pest or weed control at 250 g/ha: 250 g ai/ha, read-out: damage to plant, Velvetleaf (100=total damage to plant; 0=no damage to plant). The essentials:
as §1

The subject of test [6] is corn (Zea mays). The conditions noted are these: Zea mays, post-emergence, 312 h; for plant injury at 15.625 g/ha: 15.625 g ai/ha, evaluated after 13 days (100=total damage to plant; 0=no damage to plant), read-out: Corn damage rating; for plant injury at 62.5 g/ha: 62.5 g ai/ha, read-out: Corn damage rating (100=total damage to plant; 0=no damage to plant); for plant injury at 62.5 g/ha / plant injury at 250 g/ha: evaluated after 13 days; for plant injury at 250 g/ha: 250 g ai/ha, read-out: damage to plant, Corn (100=total damage to plant; 0=no damage to plant). The essentials:
as §1

Take `CN1C[C@@H](c2ccc(C(F)(F)F)cc2)[C@H](C(=O)Nc2nc[nH]n2)C1=O` (racemic) [Compound 1534]: in test [1], the pest or weed control at 15.625 g/ha came out at 0%, the pest or weed control at 62.5 g/ha was 0% and the pest or weed control at 250 g/ha was determined as 0%. In test [2], the pest or weed control at 15.625 g/ha turned out to be 0%, the pest or weed control at 62.5 g/ha amounted to 0% and the pest or weed control at 250 g/ha came out at 0%. In test [3], the pest or weed control at 15.625 g/ha worked out at 0%, the pest or weed control at 62.5 g/ha came to 0% and the pest or weed control at 250 g/ha amounted to 0%. In addition, in test [4], the pest or weed control at 15.625 g/ha is 0%, the pest or weed control at 62.5 g/ha stood at 0% and the pest or weed control at 250 g/ha was found to be 10%. Moreover, in test [5], the pest or weed control at 15.625 g/ha amounted to 0%, the pest or weed control at 62.5 g/ha was determined as 0% and the pest or weed control at 250 g/ha stood at 10%. Further, in test [6], the plant injury at 15.625 g/ha was 0%, the plant injury at 62.5 g/ha is 0% and the plant injury at 250 g/ha was 0%.
For `CN1C[C@@H](c2ccc(C(F)(F)F)cc2)[C@H](C(=O)Nc2cc(C(F)(F)F)nn2C)C1=O` (racemic) [Compound 1510], in test [1], the pest or weed control at 15.625 g/ha was determined as 0%, the pest or weed control at 62.5 g/ha turned out to be 0% and the pest or weed control at 250 g/ha is 0%. Moreover, in test [2], the pest or weed control at 15.625 g/ha was determined as 0%, the pest or weed control at 62.5 g/ha is 0% and the pest or weed control at 250 g/ha was 20%. For the same compound, in test [3], the pest or weed control at 15.625 g/ha is 0%, the pest or weed control at 62.5 g/ha turned out to be 0% and the pest or weed control at 250 g/ha was determined as 0%. In addition, in test [4], the pest or weed control at 15.625 g/ha worked out at 0%, the pest or weed control at 62.5 g/ha came to 0% and the pest or weed control at 250 g/ha turned out to be 0%. In test [5], the pest or weed control at 15.625 g/ha was 0%, the pest or weed control at 62.5 g/ha turned out to be 0% and the pest or weed control at 250 g/ha is 0%. In test [6], the plant injury at 15.625 g/ha was 0%, the plant injury at 62.5 g/ha worked out at 0% and the plant injury at 250 g/ha is 10%.
As to `Cc1c(NC(=O)[C@@H]2C(=O)N(C)C[C@H]2c2ccc(C(F)(F)F)cc2)ccc(F)c1F` (racemic) [Compound 1502], the pest or weed control at 15.625 g/ha turned out to be 20% in test [1]; 20% in test [2]; 60% in test [3]; 0% in test [4]; 0% in test [5]. Moreover, the pest or weed control at 62.5 g/ha worked out at 60% in test [1]; 30% in test [2]; 80% in test [3]; 0% in test [4]; 10% in test [5]. In addition, the pest or weed control at 250 g/ha in test [1] was 70%; in test [2], 80%; in test [3] it was 80%; in test [4], 20%; in test [5], 40%. For the same compound, in test [6], the plant injury at 15.625 g/ha was determined as 0%. In addition, the plant injury at 62.5 g/ha in test [6] amounted to 30%. Moreover, the plant injury at 250 g/ha in test [6] was 60%.
For `Cc1cscc1NC(=O)[C@@H]1C(=O)N(C)C[C@H]1c1ccc(C(F)(F)F)cc1` (racemic) [Compound 1526], the pest or weed control at 15.625 g/ha in test [1], in test [2], in test [3], in test [4] and in test [5] was 0% each time. Also, the pest or weed control at 62.5 g/ha was 0% in test [1]; 0% in test [2]; 20% in test [3]; 10% in test [4]; 0% in test [5]. The pest or weed control at 250 g/ha in test [1] was found to be 60%; in test [2], 0%; in test [3], 60%; in test [4], 20%; in test [5] it was 10%. Moreover, in test [6], the plant injury at 15.625 g/ha came out at 0%. Besides, the plant injury at 62.5 g/ha in test [6] was 10%. The plant injury at 250 g/ha in test [6] worked out at 10%.
Consider `Cc1ccncc1NC(=O)[C@@H]1C(=O)N(C)C[C@H]1c1ccc(C(F)(F)F)cc1` (racemic) [Compound 1505], for which, in test [1], the pest or weed control at 15.625 g/ha came to 0%, the pest or weed control at 62.5 g/ha was determined as 0% and the pest or weed control at 250 g/ha amounted to 20%. Further, in test [2], the pest or weed control at 15.625 g/ha is 0%, the pest or weed control at 62.5 g/ha amounted to 0% and the pest or weed control at 250 g/ha is 0%. For the same compound, in test [3], the pest or weed control at 15.625 g/ha was found to be 0%, the pest or weed control at 62.5 g/ha was determined as 0% and the pest or weed control at 250 g/ha amounted to 30%. Also, in test [4], the pest or weed control at 15.625 g/ha was found to be 0%, the pest or weed control at 62.5 g/ha turned out to be 0% and the pest or weed control at 250 g/ha was 10%. Besides, in test [5], the pest or weed control at 15.625 g/ha came to 0%, the pest or weed control at 62.5 g/ha stood at 0% and the pest or weed control at 250 g/ha came out at 0%. In test [6], the plant injury at 15.625 g/ha came to 0%, the plant injury at 62.5 g/ha was 10% and the plant injury at 250 g/ha is 10%.
`Cc1cc(NC(=O)[C@@H]2C(=O)N(C)C[C@H]2c2ccc(C(F)(F)F)cc2)n[nH]1` (racemic) [Compound 1532]: in test [1], the pest or weed control at 15.625 g/ha came to 0%, the pest or weed control at 62.5 g/ha was 0% and the pest or weed control at 250 g/ha stood at 0%. For the same compound, in test [2], the pest or weed control at 15.625 g/ha is 0%, the pest or weed control at 62.5 g/ha was 0% and the pest or weed control at 250 g/ha stood at 0%. Moreover, in test [3], the pest or weed control at 15.625 g/ha stood at 0%, the pest or weed control at 62.5 g/ha came to 0% and the pest or weed control at 250 g/ha was found to be 0%. In test [4], the pest or weed control at 15.625 g/ha stood at 0%, the pest or weed control at 62.5 g/ha worked out at 0% and the pest or weed control at 250 g/ha was found to be 0%. In test [5], the pest or weed control at 15.625 g/ha amounted to 0%, the pest or weed control at 62.5 g/ha stood at 0% and the pest or weed control at 250 g/ha worked out at 0%. Moreover, in test [6], the plant injury at 15.625 g/ha came out at 0%, the plant injury at 62.5 g/ha is 0% and the plant injury at 250 g/ha is 0%.
Turning to `CN1C[C@@H](c2ccc(C(F)(F)F)cc2)[C@H](C(=O)Nc2ccc(C(F)(F)F)nc2Cl)C1=O` (racemic) [Compound 1542], the pest or weed control at 15.625 g/ha in test [1], in test [2], in test [3], in test [4] and in test [5] was 0% throughout. For the same compound, the pest or weed control at 62.5 g/ha in test [1], in test [2], in test [3], in test [4] and in test [5] was 0% throughout. In addition, the pest or weed control at 250 g/ha in test [1], in test [2], in test [3], in test [4] and in test [5] was 0% in each case. Moreover, in test [6], the plant injury at 15.625 g/ha came to 0%. Also, the plant injury at 62.5 g/ha in test [6] amounted to 0%. Besides, the plant injury at 250 g/ha in test [6] came to 0%.
